The values below come from the METLIN SMRT retention time set (Domingo-Almenara et al. 2019).

The data set in a line: gradient 5% acetonitrile 3 min, to 50% in 2 min, to 85% in 15 min, held 3 min, 100 µL/min. Conditions: column: Zorbax Extend-C18 2.1 x 50 mm; eluents: water / acetonitrile, 0.1% formic acid. The essentials:
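Data were gathered over 3 months by HPLC coupled to a quadrupole time-of-flight mass spectrometer, operated in positive and negative ionization mode. Mixtures of ~100 pure standards ran on a Zorbax Extend-C18 column (2.1 × 50 mm, 1.8 μm) at 100 μL/min, with water and acetonitrile each containing 0.1% formic acid and dead and dwell volumes of 40 μL and 900 μL. Retention time was read from adduct peaks picked by computer and checked manually.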
For `Cc1cccc(-c2noc(C3CCCN3S(=O)(=O)c3c(C)cc(C)cc3C)n2)c1` (stereo not drawn), the RP-LC retention time amounted to 1340 s.

`CN(C)C(=O)c1n[nH]c2c1CN(C(=O)c1ccc(F)cc1F)CC2` gave an RP-LC retention time of 629 s.

The compound `CCc1noc(NC(C)=O)c1-c1ccc(C)c(S(=O)(=O)NCc2ccc(C)cc2)c1` had an RP-LC retention time of 886 s.

Compound `Cc1ccc(S(=O)(=O)NCCc2nnc3ccc(NCCCOC(C)C)nn23)cc1` showed an RP-LC retention time of 657 s.

In turn, `O=C(c1cn(-c2cccc(Cl)c2)nn1)N1CCN(c2ccccc2F)CC1` displayed an RP-LC retention time of 882 s.

In the case of `Cc1cc(-n2nnc(C(=O)O)c2C)ccc1F`, the RP-LC retention time came out at 705 s.

`CCCCCOc1ccc(Nc2nc(C(=O)OCC)nc3ccccc23)cc1` gave an RP-LC retention time of 789 s.

`Cc1cccc(NC(=O)C2CCN(S(=O)(=O)c3cccc4nsnc34)CC2)c1C` registered an RP-LC retention time of 895 s.

For the compound `O=C(Nc1ccc(N2CCOCC2)cc1)c1cn(-c2ccc(F)cc2)nn1`, the RP-LC retention time stood at 828 s.

With `Cn1nc(-c2nc(Cc3ccccc3)no2)c2c1CCN(C(=O)C1(c3ccccc3)CC1)C2`, the RP-LC retention time came to 962 s.

Consider `O=c1n(Cc2ccc(F)cc2)nc2c(-c3nc(-c4cccc(F)c4)no3)cccn12`, for which the RP-LC retention time is 971 s.

The compound `CCOC(=O)c1c(C)oc2nc(C)nc(N3CCN(c4ccc(C(C)=O)cc4)CC3)c12` yielded an RP-LC retention time of 642 s.

In turn, `Fc1ccc(OCc2nc(-c3ccc4c(c3)ncn4CCN3CCCC3)no2)cc1` had an RP-LC retention time of 657 s.

For `O=C(CCNc1cnc2cnccn12)NCCC1=CCCCC1`, the RP-LC retention time was determined as 626 s.

For `COc1ccccc1NC(=O)N1CCC(n2c(C(F)(F)F)nc3cccnc32)CC1`, the RP-LC retention time amounted to 898 s.

`O=C(O)c1ccccc1-c1c2ccc(=O)c(O)c-2oc2c(O)c(O)ccc12` showed an RP-LC retention time of 702 s.

In the case of `CC(=O)N(C)CCc1noc(C2CN(C(=O)Cc3cccs3)C2)n1`, the RP-LC retention time came to 627 s.

`CC(C)CCNC(=O)C1(C)Cn2nc(C(=O)NCc3ccccc3Br)cc2C(=O)N1C` (stereo not drawn) registered an RP-LC retention time of 838 s.

As for `O=S(=O)(c1cccc(-c2nc(-c3ccccc3)no2)c1)N1CCCc2ccccc21`, the RP-LC retention time came to 1350 s.

On to `COCCn1c(SCC(=O)Nc2nc3ccccc3s2)nc2c(c1=O)SC(C)C2` (stereo not drawn), for which the RP-LC retention time was 806 s.

`COc1ccc(OCc2noc(CNS(=O)(=O)c3ccc(NC(C)=O)cc3)n2)cc1` yielded an RP-LC retention time of 710 s.

`COc1cccc(-c2noc(-c3nn(-c4ccc(Cl)cc4)ccc3=O)n2)c1OC` returned an RP-LC retention time of 896 s.

In the case of `Cc1ccc2c(Nc3ccc(O)cc3)c(C(=O)OC(C)C)cnc2n1`, the RP-LC retention time stood at 640 s.

As to `O=C1CCCCC(Cc2ccccc2)(C(=O)NCCc2c[nH]c3ccccc23)N1` (stereo not drawn), the RP-LC retention time is 791 s.

On to `CCOC(=O)C1=C(C)NC2=C(C(=O)C(C(=O)OC)C(C)C2)C1c1ccccc1OCC` (stereo not drawn), for which the RP-LC retention time stood at 906 s.

`COc1ccc(NC(=O)C2CCN(S(=O)(=O)c3ccc4[nH]c(=O)ccc4c3)CC2)c(OC)c1` returned an RP-LC retention time of 663 s.

With `O=C(NCCn1nnc2cc(C(=O)N3CCCC3)ccc21)Nc1ccccc1Br`, the RP-LC retention time came to 683 s.

The compound `O=C(c1ccncc1)N1CCC(n2c(-c3ccco3)nc3cccnc32)C1` (stereo not drawn) returned an RP-LC retention time of 689 s.

Take `COc1cccc2cc(C(=O)NCCn3nc(-c4cccs4)ccc3=O)oc12`: the RP-LC retention time was found to be 676 s.

As for `COc1cccc(C#N)c1OCC(N)=O`, the RP-LC retention time turned out to be 592 s.

Take `O=C(Cn1nc2n(c1=O)CCCCC2)Nc1ccc(F)c(Cl)c1`: the RP-LC retention time stood at 729 s.

Compound `CC1=C(c2ccc(C)cc2)S(=O)(=O)N=C1N1CCCN(C(=O)c2cccc(F)c2)CC1` came in with an RP-LC retention time of 859 s.

The compound `Cc1nn(C)c(C)c1CCN(C)C(=O)C1CCCCC(=O)N1` (stereo not drawn) returned an RP-LC retention time of 570 s.

The compound `CC(C)Cn1c(=O)c(N2CCN(S(=O)(=O)c3ccccc3)CC2)nc2ccncc21` registered an RP-LC retention time of 612 s.

The compound `CCn1nccc1-c1cccc(-c2noc(-c3cnccn3)n2)c1` registered an RP-LC retention time of 883 s.

Compound `Cc1ccc(C(=O)Nc2ccc(N3CCN(c4ccccc4)C3=O)nc2)s1` registered an RP-LC retention time of 893 s.

`O=c1n(Cc2cccc(Br)c2)nc2c(S(=O)(=O)N3CCc4ccccc4C3)cccn12`: the RP-LC retention time came out at 1030 s.

Consider `CCOc1ccc(-c2cc3c(=O)n(Cc4nc(-c5ccc(SC)cc5)no4)ncn3n2)cc1`, for which the RP-LC retention time amounted to 1210 s.

The compound `COc1ccc(CNc2nccn(-c3ccc4c(c3)OCO4)c2=O)cc1OC` had an RP-LC retention time of 724 s.

The compound `Cc1ccc(NC(=O)Cc2ccc(S(C)(=O)=O)cc2)c(C(=O)c2ccccc2)c1` had an RP-LC retention time of 814 s.

Compound `CCOC(=O)C(=O)Nc1ccc(SCc2nnc(-c3ccc4c(c3)OCO4)o2)cc1` displayed an RP-LC retention time of 866 s.

Compound `O=C(Nc1ccc(CC(=O)N2CCOCC2)cc1)NC(c1ccccc1)c1ccccc1` displayed an RP-LC retention time of 740 s.

Regarding `CCc1ccc(-c2cc(C(F)(F)F)on2)cc1S(=O)(=O)N1CCC(C)CC1`, the RP-LC retention time was found to be 1350 s.

The compound `Cn1ncc2c3ccccc3n(CC(=O)N3CCN(c4ccccn4)CC3)c2c1=O` came in with an RP-LC retention time of 591 s.

`Cc1ccc(-c2cc(N3CCN(C(=O)c4ccc(C)c(C)c4)CC3)ncn2)cc1` registered an RP-LC retention time of 736 s.

With `COC(=O)c1ccccc1NC(=O)C1CCCN(c2nnc(C)c3c(C)n(-c4ccccc4)nc23)C1` (stereo not drawn), the RP-LC retention time is 834 s.

Compound `COc1ccccc1CNC(=O)CN1CCN(Cc2ccc(F)cc2)C(=O)C1=O` came in with an RP-LC retention time of 732 s.

Compound `COc1ccccc1/C=C/C(=O)/C=C/c1ccccc1O` registered an RP-LC retention time of 772 s.

Turning to `Cc1cc(C)c(NS(=O)(=O)c2cc(-c3cc(C(F)(F)F)on3)sc2C)c(C)c1`, the RP-LC retention time was determined as 1230 s.

For `COc1ccc2c(c1)C1(CCN(S(=O)(=O)c3cc(F)cc(F)c3)C1)C(=O)N2C` (stereo not drawn), the RP-LC retention time was 940 s.

In the case of `COc1cc(OC)cc(C(=O)N(C)CCc2noc(C(=O)NCc3ccccc3)n2)c1`, the RP-LC retention time worked out at 809 s.

Take `O=C(CN1C(=O)COc2ccc(C(=O)N3CCCC3)cc21)NCCCc1ccccc1`: the RP-LC retention time came out at 747 s.

In turn, `Cc1cccc(-c2nnc(-c3cc(S(=O)(=O)N4CCOCC4)ccc3F)o2)c1` returned an RP-LC retention time of 961 s.

In turn, `Cc1cc(C)cc(NC(=O)N(C)CC2CCOCC2)c1` had an RP-LC retention time of 776 s.

`CCOC(=O)C1CCN(C(=O)CCC(=O)N2CCCn3nc(-c4cn(C)c5ccccc45)cc32)CC1`: the RP-LC retention time amounted to 798 s.

Regarding `CCc1ccc(NC(=O)C2CC(=O)N(CCc3c[nH]c4ccc(F)cc34)C2)cc1` (stereo not drawn), the RP-LC retention time amounted to 873 s.

With `CCc1nc2c(NC(=O)Cc3cccnc3)cccn2n1`, the RP-LC retention time is 556 s.

Consider `CCOc1ccc(-c2cn3ccn(-c4ccc(OC)c(OC)c4)c(=O)c3n2)cc1`, for which the RP-LC retention time was 781 s.

In turn, `O=C(c1cc(-c2ccco2)on1)N1CCCC(c2nnc(-c3ccccc3F)s2)C1` (stereo not drawn) came in with an RP-LC retention time of 923 s.

As for `Cc1cc(N2CCN(C(=O)Nc3ccccc3F)CC2)nc(N2CCCC2)n1`, the RP-LC retention time was determined as 626 s.

`O=C(CN1C(=O)C2CCCCN2c2ccc(C(=O)N3CCCC3)cc21)NCc1ccccn1` (stereo not drawn): the RP-LC retention time stood at 626 s.

`Cc1nnc(N2CCC(C(=O)N3CCN(C)CC3)CC2)c2nn(-c3ccccc3)c(C)c12` had an RP-LC retention time of 573 s.

The compound `CCCNS(=O)(=O)c1cc(-c2nnc(-c3ccc(OC)c(OC)c3)o2)ccc1C` yielded an RP-LC retention time of 901 s.

As to `O=C(Cn1c(=O)c2cc(-c3cccs3)nn2c2ncccc21)NCc1ccc(Cl)cc1`, the RP-LC retention time was found to be 885 s.

As for `CCC(C(=O)Nc1ccc(C)cc1)n1cnc2nc3c(cc2c1=O)CCCC3` (stereo not drawn), the RP-LC retention time was found to be 756 s.

In turn, `CCOC(=O)c1noc2ncnc(NC3CCCc4ccccc43)c12` (stereo not drawn) yielded an RP-LC retention time of 1120 s.

In turn, `CCCn1cc(CCNC(=O)Nc2ccc(F)cc2F)c2cccnc21` returned an RP-LC retention time of 806 s.

Compound `CC(C)(C)NCC(O)COc1nsnc1N1CCOCC1` (stereo not drawn) had an RP-LC retention time of 626 s.

Compound `CCOC(=O)N1CCN(c2ncnc3c2cnn3-c2cc(Cl)ccc2C)CC1` had an RP-LC retention time of 863 s.

As to `COC(=O)c1ccc(-c2nc3cnccn3c2Nc2cccc(C(F)(F)F)c2)cc1`, the RP-LC retention time came to 945 s.

Take `Cc1cccc(-n2ccc(=O)c(-c3nc(-c4ccc5c(c4)OCO5)no3)n2)c1`: the RP-LC retention time was 894 s.

Take `Cc1c(C(=O)C(=O)NCc2ccc3c(c2)OCO3)c2ccccc2n1C`: the RP-LC retention time was found to be 820 s.

In the case of `O=C(CN1C(=O)c2ccccc2C1=O)OCc1nc2ccccc2s1`, the RP-LC retention time was 840 s.

With `CCCCOc1ccc(-c2cc3c4nnc(CCC(=O)NCc5cccc(OC)c5)n4ccn3n2)cc1`, the RP-LC retention time is 946 s.

In turn, `Cc1ccc(NC(=O)NC2CCN(c3ccccc3)C2=O)cc1` (stereo not drawn) displayed an RP-LC retention time of 821 s.

As to `CC(C)CC(=O)N1CCCC(COc2ccc(C(=O)NC(C)C)cc2)C1` (stereo not drawn), the RP-LC retention time was 827 s.

Turning to `CCOc1ccc(S(=O)(=O)Nc2cccc(-c3cn4cccc(C)c4n3)c2)cc1`, the RP-LC retention time is 666 s.

For the compound `CCS(=O)(=O)N1CCC(Cc2nncn2-c2ccccc2)C1` (stereo not drawn), the RP-LC retention time worked out at 631 s.
